From patent US10392412B2, “Platinum anticancer agents” (THE REGENTS OF THE UNIVERSITY OF CALIFORNIA, priority 2015, dated 2019)
Entries after “also recorded” stand apart in the source; their conditions may differ. Like-named read-outs stand apart in the source and are kept apart here.

Tests used:
[1] = tested on: U87MG cells; assay: Cytotoxicity CellTiter-Glo; format: cell-based, human
[2] = biological target: T1, SLC19A1 (Homo sapiens, UniProt P41440); assay: IC50 with and without folic acid, transporter SLC19A1 (Table 8); format: cell-based
T1 sequence (P41440 1-591): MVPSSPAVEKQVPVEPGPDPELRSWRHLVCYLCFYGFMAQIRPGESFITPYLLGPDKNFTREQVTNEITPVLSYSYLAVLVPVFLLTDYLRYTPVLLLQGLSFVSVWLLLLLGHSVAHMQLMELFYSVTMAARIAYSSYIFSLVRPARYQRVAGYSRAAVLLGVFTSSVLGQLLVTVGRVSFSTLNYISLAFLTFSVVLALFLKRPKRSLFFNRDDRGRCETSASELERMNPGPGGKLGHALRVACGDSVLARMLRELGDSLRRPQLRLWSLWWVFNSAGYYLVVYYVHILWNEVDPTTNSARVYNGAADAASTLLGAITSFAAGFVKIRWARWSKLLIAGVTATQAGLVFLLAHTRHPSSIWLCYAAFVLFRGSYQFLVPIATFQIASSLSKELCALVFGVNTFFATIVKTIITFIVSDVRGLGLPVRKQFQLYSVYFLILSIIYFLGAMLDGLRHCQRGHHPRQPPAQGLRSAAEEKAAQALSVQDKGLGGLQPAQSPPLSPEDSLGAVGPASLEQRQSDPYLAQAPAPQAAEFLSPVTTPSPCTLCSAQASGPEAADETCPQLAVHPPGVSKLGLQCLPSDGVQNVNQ

[3] = tested on: A2780-CP cells; assay: Cytotoxicity CellTiter-Glo; format: cell-based, human; conditions: read-out: IC50 (50% growth inhibition), Ovary, 72 hours
[4] = tested on: A204 cells; assay: Cytotoxicity CellTiter-Glo; format: cell-based, human; conditions: A204, Rhabdomyosarcoma
[5] = tested on: SAOS-2 cells; assay: Cytotoxicity CellTiter-Glo; format: cell-based, human; conditions: SAOS-2, Osteosarcoma
[6] = tested on: PE01 cells; assay: Cytotoxicity CellTiter-Glo; format: cell-based, human; conditions: read-out: IC50 (50% growth inhibition); PE01, Ovary; 72 hours
[7] = tested on: RMS13 rhabdomyosarcoma xenografts; assay: RMS13 rhabdomyosarcoma xenograft in nu/nu mice; format: in vivo, mouse; conditions: for tumor volume / tumor growth: RMS13 rhabdomyosarcoma xenograft, 5 mg/kg i.v. once a week for 4 weeks
Method: The xenograft studies were performed by subcutaneous injection of SK-N-DZ (neuroblastoma, 30×10^6 cells/animal) and RMS13 (rhabdomyosarcoma, 20×10^6 cells/animal) in right flank of the male Charles River Laboratories nu/nu mice (7-8 weeks old, weight ˜20 g). Mice were treated by intravenous tail vein injection once a week for 4 weeks. The tumor sizes and body weights were monitored twice a week. Tumor volumes were calculated according to the following formula: volume=height×[…]×length×0.5236.

[8] = tested on: T98G cells; assay: Cytotoxicity CellTiter-Glo; format: cell-based, human
[9] = tested on: A673 cells; assay: Cytotoxicity CellTiter-Glo; format: cell-based, human
[10] = tested on: SNB75 cells; assay: Cytotoxicity CellTiter-Glo; format: cell-based, human
[11] = tested on: MG-63 cells; assay: Cytotoxicity CellTiter-Glo; format: cell-based, human; conditions: MG-63, Osteosarcoma
[12] = Maximum tolerated dose study: body weight, food consumption, moribundity, MTD
Method: The mice used in MTD were given standard chow devoid of added folic acid (low folate diet) (See, Leamon C P et al., J. Pharmacol. Exp. Ther. 327: 918-925). […] Therefore we also designed a MTD study in mice treated with low folate diet. Food consumption on the day before injection (Day −1) was recorded and then it was monitored every other day. […] Blood for clinical chemistry was collected if possible. Liver, kidney and bone marrow were collected. One side of each tissue (except bone marrow) will be fixed in 4-10% formalin for future histology analysis, and the rest of tissue will be cut into pieces, snap frozen, and stored at −80° C. until analysis. Blood samples for clinical chemistry were centrifuged at 8000 rpm for 10 min at 4° C. within 1 hour of collection. Plasma was collected into 1.5 mL eppendorf tubes and stored at −80° C. until analysis. The measured parameters were alanine transaminase (ALT), aspartate transaminase (AST), alkaline phosphatase (ALP), total bilirubin, glucose, blood urea nitrogen (BUN), creatinine, and electrolytes. All experiments were housed in a virus-free, temperature controlled facility on a 12-h light-dark cycle.
The concentration versus time course of total platinum followed a two-compartment model in the mice. […] In the maximum tolerated dose studies, we observed body weight reduction in all mice due to the low folate diet (FIG. 6).

[13] = tested on: OVCAR2 cells; assay: Cytotoxicity CellTiter-Glo; format: cell-based, human; conditions: read-out: IC50 (50% growth inhibition); OVCAR2, Ovary; 72 hours
[14] = tested on: A2780 cells; assay: Cytotoxicity CellTiter-Glo; format: cell-based, human; conditions: read-out: IC50 (50% growth inhibition); A2780, Ovary; 72 hours
[15] = read-out: IC50 (50% growth inhibition), Brain, 72 hours
[16] = read-out: IC50 (50% growth inhibition), 72 hours

[Pt(DMSO)methotrexate(Cl)] [SM-69] showed an IC50 [1, 15] of 2.2 ± 2 µM, an IC50 ([1]; read-out: IC50 ± S.D. (50% growth inhibition), Brain - Low grade, + 1 mM Folic Acid) of 26.2 ± 21.5 µM and an IC50 ([1]; read-out: IC50 ± S.D. (50% growth inhibition), Brain - Low grade, two independent experiments) of 3.7 ± 4.5 µM. The IC50 ([2]; Folic acid (1 mM), read-out: IC50 with substrate or inhibitor) was 42.7 ± 4.11 µM, the IC50 ([2]; without substrate or inhibitor, read-out: IC50) was 13.5 ± 1.62 µM and the IC50 [3] was 8.6 ± 2.1 µM. It also gave a GI50 [4] of 3.9 ± 3 µM, an IC50 [4, 16] of 3.9 ± 3 µM and a GI50 [5] of 10.4 ± 9.4 µM. The IC50 [5, 16] was 10.4 ± 9.4 µM, the IC50 [6] was 0.6 ± 0.4 µM and the “tumor volume / tumor growth” value ([7]; 5 mg/kg) was “significantly different compared with other groups; also recorded: significantly lower compared with SM-70”. For the same substance, the “tumor volume / tumor growth” value ([7]; listed as AT-69, 5 mg/kg) was “significantly reduces RMS tumor growth; also recorded: inhibited tumor growth; also recorded: more potent than cisplatin”, the survival ([7]; RMS13 xenograft model, 5 mpk, listed as AT-69, 5 mg/kg) was “significantly increase survival; also recorded: increase survival rate; also recorded: significantly increased rate of survival” and the IC50 [8, 15] was 40.8 ± 42.6 µM. For the same substance, the IC50 ([8]; read-out: IC50 ± S.D. (50% growth inhibition), Brain - High grade, + 1 mM Folic Acid) was 1.9 ± 0.03 µM, the IC50 ([8]; read-out: IC50 ± S.D. (50% growth inhibition), Brain - High grade, two independent experiments) was 0.09 ± 0.007 µM and the GI50 ([9]; A673, Ewing's sarcoma) was 0.3 ± 0.3 µM. It also gave an IC50 ([9]; read-out: IC50 (50% growth inhibition), A673, Ewing's Sarcoma, 72 hours) of 0.3 ± 0.3 µM, an IC50 ([10]; read-out: IC50 (50% growth inhibition), SNB75, Brain, 72 hours) of 6.1 ± 4.6 µM and an IC50 ([10]; read-out: IC50 ± S.D. (50% growth inhibition), SNB75, Brain - High grade, + 1 mM Folic Acid) of 46.3 ± 20.2 µM. It also gave an IC50 ([10]; read-out: IC50 ± S.D. (50% growth inhibition), SNB75, Brain - High grade, two independent experiments) of 8.7 ± 6.4 µM, a GI50 [11] of 2.4 ± 1.4 µM and an IC50 [11, 16] of 2.4 ± 1.4 µM. For the same substance, the “body weight reduction compared with saline and vehicle treated” value ([12]; 2.5 mg/kg once a week, low folate diet) was “similar”, the “Body weight (% of vehicle) over 30-days” value ([12]; 2.5, 5, 7.5 mpk) was “significant body weight loss” and the “cumulative food consumption over 30-days” value ([12]; 2.5, 5, 7.5 mpk, mouse model) was “dose-dependently alter food consumption”. For the same substance, the maximum tolerated dose ([12]; i.v. once a week, mice on low folate diet) was “approximately 5 mg/kg”, the IC50 [13] was 3.3 ± 1.6 µM and the IC50 [14] was 1.2 ± 0.2 µM.
